Experimental data: patent US11839679B2, “Gamma-diketones for treatment and prevention of aging skin and wrinkles” (BioSplice Therapeutics, Inc., priority 2014, dated 2023)

Tested on: fine lines, wrinkles in the outer canthus of the eyes (crow's feet area)
Experiment: Panelist self-assessment questionnaire, Example 1
Type: in vivo, human
Settings: for Q2 appearance of my skin around either of my eyes, Average Score: Score 1 (Better) to 5 (Worse); for Q4 any discomfort, other than slight tingling, in the treated area during the study, Average Score: Score 1 (No) to 5 (Yes, everyday lasting more than an hour); for Q1 My wrinkles in the eye area have improved, Average Score: Score 1 (Strongly agree) to 5 (Strongly disagree); for Q3 how do you feel about the treated area surrounding your eyes and the appearance of wrinkles, Average Score: Score 1 (Very Satisfied) to 5 (Very Dissatisfied); for Q2 appearance of my skin around either of my eyes, % Responders Score 1: Score 1 = Better; for Q4 any discomfort, other than slight tingling, in the treated area during the study, % Responders Score 1: Score 1 = No; for Q1 My wrinkles in the eye area have improved, % Responders Score 1: Score 1 = Strongly agree; for Q3 how do you feel about the treated area surrounding your eyes and the appearance of wrinkles, % Responders Score 1: Score 1 = Very Satisfied; for Q1 My wrinkles in the eye area have improved, % Responders Score 2: Score 2 = Agree; for Q2 appearance of my skin around either of my eyes, % Responders Score 2: Score 2 = Little better; for Q3 how do you feel about the treated area surrounding your eyes and the appearance of wrinkles, % Responders Score 2: Score 2 = Satisfied; for Q4 any discomfort, other than slight tingling, in the treated area during the study, % Responders Score 2: Score 2 = Yes, occasional discomfort lasting less than an hour; for Q1 My wrinkles in the eye area have improved, % Responders Score 3: Score 3 = Neither agree or disagree
Procedure: Three groups of women were recruited to evaluate and compare the efficacy of three anti-aging test products (targeting the periorbital eye area) intended to reduce the appearance of fine lines, wrinkles in the outer canthus of the eyes (crow's feet area) over a 12 week period. Wrinkle assessment was conducted instrumentally using a Visioscan image analysis system. Effectiveness of the test product was evaluated using panelist self-assessment via questionnaire responses comprised of 3-4 questions (Q1, Q2, Q3 & Q4). Each stage in the progression of treatments was photographically documented using a High Resolution Scientifically Matched Photography technique. Image analysis was utilized to quantify changes in fine lines and crow's feet condition observed in the Scientifically Matched Photographs.
Subject Selection: • Number: Six subjects (two per group) to complete the study. • Sex: Females • Race: Caucasian/Asian/Hispanic • Age Range: 40 through 60 years old
Test samples: • Topical 0.15% of Compound #222 in Oil (a 50/50 mixture of • Propylene Glycol Dicaprylate/Dicaprate and Caprylic/Capric Triglyceride) (Cohort 1) • Topical 0.15% of Compound #222 in PEG400 (Cohort 2) • Topical 0.05% of Compound #222 in PEG400 (Cohort 3)
All subjects were instructed to use the test material once a day, as part of their daily skin care routine. Immediately following baseline evaluations, the subjects were issued the product with the following instructions:
GROUP 1—Compound #222 Topical 0.15% in oil (Cohort 1): The subjects were instructed to hold the bottle at an angle such that the roller-ball was at bottom and apply the roller-ball to the periorbital area, including the crow's feet area, 2-3 times, starting from the area under the eye (and above the cheekbone) and moving up towards the outer tip of the eye-brow. After 2-3 rolls, they were able to see wetness on the treated area. This procedure was repeated for the other eye.
GROUPS 2 & 3 Compound #222 Topical 0.15% in PEG (Cohort 2) & Compound #222 Topical 0.05% in PEG (Cohort 3): The subjects were instructed to hold the dispenser upright with one hand and with the tip of the index finger on the pump (similar to holding a spray container), pour a small amount of the product into the palm of their other hand by pumping once or twice. The product was then applied on to the periorbital area, including the crow's feet area, of both eyes with their index finger.
[…] After acclimating to ambient conditions, High Resolution Scientifically Matched Photographs were be taken and biophysical measurements (Surface Evaluation of Living Skin via Visioscan) were repeated using the standard template to identify test sites on the face. In addition (during the acclimation period) all participants were be asked to fill out a self-assessment questionnaire.
The source data was Visioscan and PhotoGrammetrix Image Analysis readings along with subjective assessments, which were totaled and reported as average scores. Photographs were placed side by side as to compare the photographs of before and after application of the test product in the eye area. Wrinkle reduction analysis source data consisted of crow's feet area quantification in relative units (px), collected at baseline and, the week 2, 4, 8 and 12 evaluations. The data obtained via Visioscan and from PhotoGrammetrix Image Analysis was quoted as % differences from baseline at each of the previously described time points. A paired t-test analysis was conducted in order to compare the results of post test product application measurements to baseline measurements where applicable. Statistical significance was established if p≤(α=0.05) was calculated.

[1] = Day 7, Topical 0.05% in PEG (Cohort 3)
[2] = Day 7, Topical 0.15% in Oil (Cohort 1)
[3] = Day 7, Topical 0.15% in PEG (Cohort 2)
[4] = Day 14, Topical 0.05% in PEG (Cohort 3)
[5] = Day 14, Topical 0.15% in Oil (Cohort 1)
[6] = Day 14, Topical 0.15% in PEG (Cohort 2)

Q4 any discomfort, other than slight tingling, in the treated area during the study, Average Score [1]: 1.00
Q4 any discomfort, other than slight tingling, in the treated area during the study, Average Score [2]: 1.50
Q4 any discomfort, other than slight tingling, in the treated area during the study, Average Score [3]: 1.50
Q4 any discomfort, other than slight tingling, in the treated area during the study, Average Score [4]: 1.00
Q4 any discomfort, other than slight tingling, in the treated area during the study, Average Score [5]: 1.50
Q4 any discomfort, other than slight tingling, in the treated area during the study, Average Score [6]: 2.50
Q4 any discomfort, other than slight tingling, in the treated area during the study, % Responders Score 1 [1]: 100%
Q4 any discomfort, other than slight tingling, in the treated area during the study, % Responders Score 1 [2]: 50%
Q4 any discomfort, other than slight tingling, in the treated area during the study, % Responders Score 1 [3]: 50%
Q4 any discomfort, other than slight tingling, in the treated area during the study, % Responders Score 1 [4]: 100%
Q4 any discomfort, other than slight tingling, in the treated area during the study, % Responders Score 1 [5]: 50%
Q4 any discomfort, other than slight tingling, in the treated area during the study, % Responders Score 1 [6]: 50%
Q4 any discomfort, other than slight tingling, in the treated area during the study, % Responders Score 2 [1]: 0%
Q4 any discomfort, other than slight tingling, in the treated area during the study, % Responders Score 2 [2]: 50%
Q4 any discomfort, other than slight tingling, in the treated area during the study, % Responders Score 2 [3]: 50%
Q4 any discomfort, other than slight tingling, in the treated area during the study, % Responders Score 2 [4]: 0%
Q4 any discomfort, other than slight tingling, in the treated area during the study, % Responders Score 2 [5]: 50%
Q4 any discomfort, other than slight tingling, in the treated area during the study, % Responders Score 2 [6]: 0%
Structure (SMILES): O=C(CCC(=O)c1ccc2c(c1)OCO2)c1ccccc1 [#222]
Q2 appearance of my skin around either of my eyes, Average Score [1]: 1.50
Q1 My wrinkles in the eye area have improved, Average Score [1]: 2.00
Q3 how do you feel about the treated area surrounding your eyes and the appearance of wrinkles, Average Score [1]: 2.00
Q2 appearance of my skin around either of my eyes, Average Score [2]: 2.50
Q1 My wrinkles in the eye area have improved, Average Score [2]: 3.50
Q3 how do you feel about the treated area surrounding your eyes and the appearance of wrinkles, Average Score [2]: 2.50
Q2 appearance of my skin around either of my eyes, Average Score [3]: 2.50
Q1 My wrinkles in the eye area have improved, Average Score [3]: 3.50
Q3 how do you feel about the treated area surrounding your eyes and the appearance of wrinkles, Average Score [3]: 2.50
Q2 appearance of my skin around either of my eyes, Average Score [4]: 1.50
Q1 My wrinkles in the eye area have improved, Average Score [4]: 1.50
Q3 how do you feel about the treated area surrounding your eyes and the appearance of wrinkles, Average Score [4]: 1.50
Q2 appearance of my skin around either of my eyes, Average Score [5]: 2.50
Q1 My wrinkles in the eye area have improved, Average Score [5]: 3.00
Q3 how do you feel about the treated area surrounding your eyes and the appearance of wrinkles, Average Score [5]: 2.00
Q2 appearance of my skin around either of my eyes, Average Score [6]: 2.50
Q1 My wrinkles in the eye area have improved, Average Score [6]: 3.00
Q3 how do you feel about the treated area surrounding your eyes and the appearance of wrinkles, Average Score [6]: 3.00
Q2 appearance of my skin around either of my eyes, % Responders Score 1 [1]: 50%
Q2 appearance of my skin around either of my eyes, % Responders Score 1 [2]: 0%
Q2 appearance of my skin around either of my eyes, % Responders Score 1 [3]: 0%
Q2 appearance of my skin around either of my eyes, % Responders Score 1 [4]: 50%
Q2 appearance of my skin around either of my eyes, % Responders Score 1 [5]: 0%
Q2 appearance of my skin around either of my eyes, % Responders Score 1 [6]: 0%
Q1 My wrinkles in the eye area have improved, % Responders Score 1 [1]: 0%
Q1 My wrinkles in the eye area have improved, % Responders Score 1 [2]: 0%
Q1 My wrinkles in the eye area have improved, % Responders Score 1 [3]: 0%
Q1 My wrinkles in the eye area have improved, % Responders Score 1 [4]: 50%
Q1 My wrinkles in the eye area have improved, % Responders Score 1 [5]: 0%
Q1 My wrinkles in the eye area have improved, % Responders Score 1 [6]: 0%
Q3 how do you feel about the treated area surrounding your eyes and the appearance of wrinkles, % Responders Score 1 [1]: 50%
Q3 how do you feel about the treated area surrounding your eyes and the appearance of wrinkles, % Responders Score 1 [2]: 0%
Q3 how do you feel about the treated area surrounding your eyes and the appearance of wrinkles, % Responders Score 1 [3]: 0%
Q3 how do you feel about the treated area surrounding your eyes and the appearance of wrinkles, % Responders Score 1 [4]: 50%
Q3 how do you feel about the treated area surrounding your eyes and the appearance of wrinkles, % Responders Score 1 [5]: 50%
Q3 how do you feel about the treated area surrounding your eyes and the appearance of wrinkles, % Responders Score 1 [6]: 0%
Q1 My wrinkles in the eye area have improved, % Responders Score 2 [1]: 100%
Q1 My wrinkles in the eye area have improved, % Responders Score 2 [2]: 50%
Q1 My wrinkles in the eye area have improved, % Responders Score 2 [3]: 0%
Q1 My wrinkles in the eye area have improved, % Responders Score 2 [4]: 50%
Q1 My wrinkles in the eye area have improved, % Responders Score 2 [5]: 50%
Q1 My wrinkles in the eye area have improved, % Responders Score 2 [6]: 50%
Q2 appearance of my skin around either of my eyes, % Responders Score 2 [1]: 50%
Q2 appearance of my skin around either of my eyes, % Responders Score 2 [2]: 50%
Q2 appearance of my skin around either of my eyes, % Responders Score 2 [3]: 50%
Q2 appearance of my skin around either of my eyes, % Responders Score 2 [4]: 50%
Q2 appearance of my skin around either of my eyes, % Responders Score 2 [5]: 50%
Q2 appearance of my skin around either of my eyes, % Responders Score 2 [6]: 50%
Q3 how do you feel about the treated area surrounding your eyes and the appearance of wrinkles, % Responders Score 2 [1]: 0%
Q3 how do you feel about the treated area surrounding your eyes and the appearance of wrinkles, % Responders Score 2 [2]: 50%
Q3 how do you feel about the treated area surrounding your eyes and the appearance of wrinkles, % Responders Score 2 [3]: 50%
Q3 how do you feel about the treated area surrounding your eyes and the appearance of wrinkles, % Responders Score 2 [4]: 50%
Q3 how do you feel about the treated area surrounding your eyes and the appearance of wrinkles, % Responders Score 2 [5]: 0%
Q3 how do you feel about the treated area surrounding your eyes and the appearance of wrinkles, % Responders Score 2 [6]: 50%
Q1 My wrinkles in the eye area have improved, % Responders Score 3 [1]: 0%
Q1 My wrinkles in the eye area have improved, % Responders Score 3 [2]: 0%
Q1 My wrinkles in the eye area have improved, % Responders Score 3 [3]: 50%
Q1 My wrinkles in the eye area have improved, % Responders Score 3 [4]: 0%
Q1 My wrinkles in the eye area have improved, % Responders Score 3 [5]: 0%
Q1 My wrinkles in the eye area have improved, % Responders Score 3 [6]: 0%
